Test results published in patent publication US9445596B2, “Small molecule compounds for the control of nematodes” (California Institute of Technology, priority 2011, dated 2016).
Entries after “also recorded” stand apart in the source; their conditions may differ.

Assays:
ASI sensory neurons = conditions: McGrath et al., Nature 2011; cited from earlier work
ASK neurons = test: Calcium imaging (G-CaMP), ASK neurons; assay type: in vivo, C. elegans; conditions: 1 pM to 1 μM
Text: (§1) Transgenic lines that express the genetically encoded Ca^2+ sensor in ASK (kyEx2866) and AIA (kyEx2916) (Macosko et al., Nature 458:1171-75 (2009), which is hereby incorporated by reference in its entirety) were used for calcium imaging. Young adults or adult worms were inserted into an “Olfactory chip” microfluidic device (Chronis et al., Nat. Methods 4:727-31 (2007), which is hereby incorporated by reference in its entirety). Dilutions of icas#3 were done with S-basal buffer (with no cholesterol). As stock solutions of icas#3 contained small amounts of ethanol, equivalent amounts of ethanol were added to the S-basal control flow.
(§2) Imaging was conducted using an inverted Zeiss microscope equipped with an Andor camera. Exposure time for image acquisition was 300 milliseconds. Before imaging the ASK neuron, the worm was exposed to blue light for 3 minutes as ASK responds to the blue light itself. […] Movies were analyzed using custom-made Matlab scripts. The first peak of fluorescence immediately after exposure to buffer or icas#3 was chosen for calculating the average change in fluorescence upon exposure to either buffer or icas#3. The value for this maximum was then subtracted from the mean fluorescence during the 5 seconds before the delivery of icas#3/buffer (corresponding to the region between 5 to 10 seconds in FIG. 2D).

[1] = test system: C. elegans hermaphrodites and males; test: Spot attraction assay; assay type: in vivo
Procedure: The spot attraction assays were conducted according to a previously reported method (Pungaliya et al., PNAS 106:7708-13 (2009); Srinivasan et al., Nature 454:1115-18 (2008), which are hereby incorporated by reference in their entirety). For both C. elegans hermaphrodites and males, 50-60 worms were harvested daily at the fourth larval stage (L4) and stored segregatedly by sex at 20° C. overnight, to be used as young adults the following day. For the competition experiments, two conditions were used: 120 nM ascr#3 and 10 nM icas#3 (Condition 1), or 12 μM ascr#3 and 1 μM icas#3 (Condition 2) in water containing 10% ethanol. Aliquots were stored at −20° C. in 20 μL tubes. 10% ethanol in water was used as control.
Attraction assays with hbas#3 were conducted as previously reported (Srinivasan et al., Nature 454:1115-18 (2008); Pungaliya et al., Proc. Natl. Acad. Sci. U.S.A. 106:7708-13 (2009), which are hereby incorporated by reference in their entirety). For the attraction assays, 50-60 hermaphrodite worms were harvested daily at the early fourth larval stage (L4) and stored at 20° C. overnight to be used as young adults the following day. Hbas#3 was dissolved in water containing 10% ethanol. Aliquots were stored at −20° C. in 20 μL tubes. 10% ethanol in water was used as control.

C. elegans = test: Aggregation assay; assay type: in vivo
Procedure: Aggregation behavior of worms was measured using assays reported in de Bono & Bargmann, Cell 94:679-89 (1998), which is hereby incorporated by reference in its entirety. Aggregation assays were conducted on standard NGM plates. Plates containing indole ascarosides were made by adding the indole ascaroside stock solution to the NGM media before they were poured onto the plates. These plates were dried at room temperature for 2 to 3 days. Control plates were treated similarly, except that ethanol solutions instead of icas solutions were added to the plates, corresponding to the amount of ethanol introduced via the icas solutions. Final ethanol concentrations of the plates were below 0.1% for all conditions. After drying, both control plates and plates containing indole ascarosides were seeded with 150 μl of an overnight culture of E. coli OP50 using a micropipette, and were allowed to dry for 2 days at room temperature. For “low worm density” experiments, 20 worms were placed onto the lawn and left at 20° C. for 3 hours. For “high worm density” experiments, approximately 120 worms were placed onto the bacterial lawn and left at 20° C. for 3 hours. Aggregation behavior was quantified as the number of animals that were in touch with two or more animals at greater than 50% of their body length.

[2] = test system: C. elegans hermaphrodites; test: Quadrant chemotaxis assay; assay type: in vivo; conditions: for chemotaxis of hermaphrodites: 1 pM, all tested strains
Procedure: Chemotaxis to both non-indole and indole ascarosides was assessed on 10 cm four-quadrant petri plates (Wicks et al., Dev. Biol. 221:295-307 (2000), which is hereby incorporated by reference in its entirety). Each quadrant was separated from adjacent ones by plastic spacers (FIG. 1B). Pairs of opposite quadrants were filled with nematode growth medium (NGM) agar containing either indole ascarosides or non-indole ascarosides at different concentrations. Animals were washed gently in a S-basal buffer, placed in the center of a four-quadrant plate with ascarosides in alternating quadrants, and scored after 15 minutes and 30 minutes. A chemotaxis index was calculated as: (the number of animals on ascaroside quadrants minus the number of animals on buffer quadrants)/(total number of animals).
Chemotaxis to hbas#3 was assessed on 10 cm four-quadrant petri plates (Wicks et al., Dev. Biol. 221:295-307 (2000), which is hereby incorporated by reference in its entirety). Each quadrant was separated from adjacent ones by plastic spacers. Pairs of opposite quadrants were filled with nematode growth medium (NGM) agar containing different concentrations of hbas#3. Animals were washed gently in an S-basal buffer and placed in the center of a four-quadrant plate with ascarosides in alternating quadrants, and scored after 15 minutes and 30 minutes. A chemotaxis index was calculated as: (the number of animals on ascaroside quadrants minus the number of animals on buffer quadrants)/(total number of animals).

AIA interneurons = test: Calcium imaging (G-CaMP), AIA interneurons; assay type: in vivo, C. elegans
Text: as §1, §2

[3] = test system: C. elegans hermaphrodites; test: Measurement of locomotory parameters (automated worm tracking); assay type: in vivo
Procedure: Reversal frequency and velocity were measured using an automated worm-tracking system (Pungaliya et al., PNAS 106:7708-13 (2009); Srinivasan et al., Nature 454:1115-18 (2008), which are hereby incorporated by reference in their entirety).

[4] = social wild-type strains (RC301 and CB4856) and npr-1(ad609) hermaphrodites
[5] = ASK-ablated hermaphrodites on icas#3 plates

C[C@@H]1O[C@@H](OCCC(=O)O)[C@H](O)C[C@H]1O [ascr#5]
calcium transients in the ASI sensory neurons (ASI sensory neurons): does not elicit calcium transients

C[C@H](CCCC/C=C/C(=O)O)O[C@@H]1O[C@@H](C)[C@H](OC(=O)c2c[nH]c3ccccc23)C[C@H]1O [icas#3]
Ca^2+ transients in ASK neurons (ASK neurons): no detection of Ca^2+ transients
attraction in the spot attraction assay ([1]; 1 pmol, N2 hermaphrodites and him-5 males): attractive to both C. elegans sexes
attraction after ablation of both ASI and ASK neurons ([1]; ASI- and ASK-ablated hermaphrodites): did not result in a more significant loss of attraction compared to ASK ablation alone
attraction after ablation of the ASI neurons ([1]; ASI-ablated hermaphrodites): no significant effect
attraction of AIA-deficient worms ([1]; MEC-4 expressed in AIA interneuron): did not show any attraction
attraction of daf-22 hermaphrodites ([1]; daf-22 hermaphrodites): attracted; also recorded: as strongly as N2 worms
attraction after ablation of ASK sensory neurons ([1]; hermaphrodites lacking ASK neurons): near complete loss of attraction
attraction in the spot attraction assay ([1]; high concentrations, males and hermaphrodites): attracted both males and hermaphrodites
attraction of hermaphrodites ([1]; low concentrations, N2 hermaphrodites): strongly attractive to hermaphrodites
attraction of males ([1]; low concentrations, males): no longer attracted
attraction of social hermaphrodites [1, 4]: attracted; also recorded: strongly attracted
attraction after ablation of the RMG interneuron ([1]; wild-type (N2) and ncs-1::gfp hermaphrodites, RMG ablated): does not affect attraction; also recorded: did not affect icas#3 response
increase in aggregation of N2 hermaphrodites (C. elegans; high worm density (120 worms per 5 cm plate)): ≤ 3 fold
average clump size (C. elegans; icas#3-mediated aggregation): 3-5 worms
concentrations at which active as hermaphrodite attractants and aggregation signals (C. elegans; in vivo): femtomolar to picomolar
concentrations that induce maximal aggregation (C. elegans; in vivo): 1 to 10 pM
lowest concentration with very strong increase in aggregation (as low as) (C. elegans; low worm density (20 worms per 5 cm plate), solitary and social hermaphrodites): 10 fM
increase in aggregation of N2 hermaphrodites (C. elegans; low worm density, 1 pM): ≤ 4 fold
aggregation of daf-22 hermaphrodites compared with N2 (C. elegans; low worm density, 1 pM and 10 pM): less aggregation than N2 worms at 1 pM icas#3 but not at 10 pM icas#3
aggregation of hermaphrodites lacking the ASK neurons (C. elegans; low worm density, any of the tested concentrations): do not aggregate; also recorded: did not aggregate
aggregation of npr-1(ad609) hermaphrodites (C. elegans; low worm density, over the entire tested concentration range, without a drop off at higher concentrations): increased aggregation
aggregation at 1 nM (C. elegans; low worm density, social strain CB4856, 1 nM): not significantly different from the control
concentration of maximal aggregation (C. elegans; low worm density, social strain CB4856, bell-shaped response curve): 1 pM
aggregation of him-5 males (C. elegans; plates containing 100 fM or 100 pM): significantly increased
chemotaxis of hermaphrodites ([2]; after 15 minutes): attracted
chemotaxis of hermaphrodites ([2]; after 30 minutes): attracted
lowest concentration resulting in strong attraction of hermaphrodites (as low as) ([2]; both in the presence and absence of food): 1 pM
response of daf-22 hermaphrodites ([2]; daf-22 hermaphrodites): as strongly as N2 worms
attraction of social hermaphrodites [2, 4]: strongly attracted
G-CaMP fluorescence signals in AIA interneurons (AIA interneurons; 1 μM): induces G-CaMP fluorescence signals
G-CaMP fluorescence in the AIA neurons (AIA interneurons; in vivo): significantly increased G-CaMP fluorescence
worm velocity ([3]; 1-10 pM): not significantly reduced
forward velocity of ASK-ablated hermaphrodites [3, 5]: do not display reduced forward velocity
reversal frequency of ASK-ablated hermaphrodites [3, 5]: does not increase; also recorded: neither increased reversal frequency
mean stopped duration ([3]; aggregation-inducing concentrations, N2 hermaphrodites): strongly increase mean stopped duration
